This passage reports Ratio and IC50 results from US11254686B1 (Corvus Pharmaceuticals, Inc., priority 2017, dated 2022).

Experiment [1] concerns the target adenosine A2B receptor (Homo sapiens (Human), UniProt P29275). Description: Adenosine receptor activity assay (Table 1), A2B activity. The format is biochemical. The note with it: for Ratio: A2A activity to A2B activity (A2A/A2B); for IC50: read-out: Ave A2B cAMP IC50.
In experiment [2] the target is adenosine A2A receptor (Homo sapiens (Human), UniProt P29274). Description: Adenosine receptor activity assay (Table 1), A2A activity. The experiment is classed as biochemical. Particulars: read-out: Ave A2A cAMP IC50.

What is called IC50 is the concentration that inhibits the measured activity by half.

Each structure is given as a SMILES string.

adenosine A2A receptor, sequence (P29274 whole entry): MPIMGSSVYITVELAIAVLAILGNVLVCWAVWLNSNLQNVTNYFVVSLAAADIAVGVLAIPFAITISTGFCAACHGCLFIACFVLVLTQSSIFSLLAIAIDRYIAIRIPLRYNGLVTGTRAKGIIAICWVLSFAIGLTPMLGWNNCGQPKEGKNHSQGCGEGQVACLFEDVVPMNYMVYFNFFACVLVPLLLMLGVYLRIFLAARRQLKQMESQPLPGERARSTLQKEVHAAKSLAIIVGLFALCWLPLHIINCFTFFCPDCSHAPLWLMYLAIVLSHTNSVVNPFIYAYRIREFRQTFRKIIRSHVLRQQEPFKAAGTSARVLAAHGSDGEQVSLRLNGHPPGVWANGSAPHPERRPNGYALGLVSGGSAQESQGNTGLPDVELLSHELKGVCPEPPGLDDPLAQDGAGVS
adenosine A2B receptor, sequence (P29275 whole entry): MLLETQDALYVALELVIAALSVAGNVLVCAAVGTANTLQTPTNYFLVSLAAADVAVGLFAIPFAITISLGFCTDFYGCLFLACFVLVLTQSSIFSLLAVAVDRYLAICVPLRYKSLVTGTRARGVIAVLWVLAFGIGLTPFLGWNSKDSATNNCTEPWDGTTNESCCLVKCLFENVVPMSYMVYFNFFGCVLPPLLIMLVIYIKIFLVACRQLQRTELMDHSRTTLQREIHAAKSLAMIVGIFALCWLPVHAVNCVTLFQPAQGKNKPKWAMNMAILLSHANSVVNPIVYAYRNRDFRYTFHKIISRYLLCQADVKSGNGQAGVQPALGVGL

On to `O=C(NCc1cccnn1)c1nc(NCc2cccnn2)nc2ccsc12` [Example Z35, N-(Pyridazin-3-ylmethyl)-2-((pyridazin-3-ylmethyl)amino)thieno[3,2-d]pyrimidine-4-carboxamide], for which the Ratio in experiment [1] turned out to be 1.00. Moreover, the concentration for half-maximal inhibition (IC50) in experiment [1] and in experiment [2] was greater than 500 nM throughout.
As to `C[C@H](Nc1nc(C(=O)N2CCC[C@@H]2C)c2sccc2n1)c1cccnc1` [Example Z36, ((S)-2-Methylpyrrolidin-1-yl)(2-(((S)-1-(pyridin-3-yl)ethyl)amino)thieno[3,2-d]pyrimidin-4-yl)methanone], in experiment [1], the Ratio turned out to be 1.55. Besides, the half-maximal inhibitory concentration (IC50) in experiment [1] and in experiment [2] was 100 to 500 nM in each case.
Consider `C[C@H](Nc1nc(C(=O)N2CCC[C@H]2C)c2sccc2n1)c1cccnc1` [Example Z37, ((R)-2-Methylpyrrolidin-1-yl)(2-(((S)-1-(pyridin-3-yl)ethyl)amino)thieno[3,2-d]pyrimidin-4-yl)methanone], for which, in experiment [1], the Ratio was determined as 64.10 and the IC50 is 100 to 500 nM. For the same molecule, the IC50 in experiment [2] is greater than 500 nM.
In the same order, the values of `COc1ccc(CNc2nc(C(=O)N3CCCC3)c3sccc3n2)cc1OC` [Example Z38, (2-((3,4-Dimethoxybenzyl)amino)thieno[3,2-d]pyrimidin-4-yl)(pyrrolidin-1-yl)methanone] are 1.00, greater than 500 nM and greater than 500 nM.
Take `O=C(c1nc(NCc2ccccc2)nc2ccsc12)N1CCCC1` [Example Z39, (2-(Benzylamino)thieno[3,2-d]pyrimidin-4-yl)(pyrrolidin-1-yl)methanone]: in experiment [1], the Ratio is 1.22 and the IC50 is 100 to 500 nM. Besides, the half-maximal inhibitory concentration (IC50) in experiment [2] fell in the range of 100 to 500 nM.
Regarding `O=C(c1nc(NCc2ccccc2)nc2ccsc12)N1CC[C@H](O)C1` [Example Z40, (S)-(2-(Benzylamino)thieno[3,2-d]pyrimidin-4-yl)(3-hydroxypyrrolidin-1-yl)methanone], in experiment [1], the Ratio is 21.05 and the IC50 fell in the range of 100 to 500 nM. Moreover, in experiment [2], the half-inhibitory concentration (IC50) is greater than 500 nM.
Turning to `CCN(CC)C(=O)c1nc(N[C@@H](C)c2cccnc2)nc2ccsc12` [Example Z41, (S)—N,N-Diethyl-2-((1-(pyridin-3-yl)ethyl)amino)thieno[3,2-d]pyrimidine-4-carboxamide], in experiment [1], the Ratio is recorded as 1.00 and the IC50 was greater than 500 nM. The IC50 in experiment [2] was greater than 500 nM.
`O=C(c1nc(NCc2cccnn2)nc2ccsc12)N1CCCC1` [Example Z43, (2-((Pyridazin-3-ylmethyl)amino)thieno[3,2-d]pyrimidin-4-yl)(pyrrolidin-1-yl)methanone]: in experiment [1], the Ratio is on record as 33.44 and the concentration for half-maximal inhibition (IC50) was 100 to 500 nM. Further, the IC50 in experiment [2] is greater than 500 nM.
The corresponding values for `CC(NC(=O)c1nc(NC(C)c2cccnc2)nc2ccsc12)c1cccnc1` (stereo not shown) [Example Z44, N-(1-(Pyridin-3-yl)ethyl)-2-((1-(pyridin-3-yl)ethyl)amino)thieno[3,2-d]pyrimidine-4-carboxamide] are 44.44, 100 to 500 nM and greater than 500 nM.
In the case of `Cc1cncc(CNC(=O)c2nc(NCc3cncc(C)c3)nc3ccsc23)c1` [Example Z45, N-((5-Methylpyridin-3-yl)methyl)-2-(((5-methylpyridin-3-yl)methyl)amino)thieno[3,2-d]pyrimidine-4-carboxamide], in experiment [1], the Ratio came to 1.00 and the half-inhibitory concentration (IC50) is greater than 500 nM. In experiment [2], the 50% inhibitory concentration (IC50) was greater than 500 nM.
`C[C@H](Nc1nc(C(=O)N2CCC[C@@H]2CO)c2sccc2n1)c1cccnc1` [Example Z46, ((R)-2-(Hydroxymethyl)pyrrolidin-1-yl)(2-(((S)-1-(pyridin-3-yl)ethyl)amino)thieno[3,2-d]pyrimidin-4-yl)methanone]: the Ratio in experiment [1] came to 30.80. Also, the IC50 is 100 to 500 nM in experiment [1] and greater than 500 nM in experiment [2].
Turning to `C[C@H](Nc1nc(C(=O)N2CCC[C@H]2CO)c2sccc2n1)c1cccnc1` [Example Z47, ((S)-2-(Hydroxymethyl)pyrrolidin-1-yl)(2-(((S)-1-(pyridin-3-yl)ethyl)amino)thieno[3,2-d]pyrimidin-4-yl)methanone], in experiment [1], the Ratio is 1.00. For the same molecule, the half-inhibitory concentration (IC50) in experiment [1] and in experiment [2] was greater than 500 nM in each case.
With `CC(Nc1nc(C(=O)N2CC[C@@H](F)C2)c2sccc2n1)c1cccnc1` (stereo partly drawn) [Example Z48, ((R)-3-Fluoropyrrolidin-1-yl)(2-((1-(pyridin-3-yl)ethyl)amino)thieno[3,2-d]pyrimidin-4-yl)methanone], in experiment [1], the Ratio is listed as 9.26 and the half-inhibitory concentration (IC50) is 10 to 50 nM. For the same molecule, the IC50 in experiment [2] fell in the range of 100 to 500 nM.
`COc1ccc(CNC(=O)c2nc(NC(C)c3ccccn3)nc3ccsc23)cn1` (stereo not shown) [Example Z49, N-((6-Methoxypyridin-3-yl)methyl)-2-((1-(pyridin-2-yl)ethyl)amino)thieno[3,2-d]pyrimidine-4-carboxamide]: in experiment [1], the Ratio is recorded as 0.62 and the IC50 was 100 to 500 nM. Besides, the half-inhibitory concentration (IC50) in experiment [2] is 100 to 500 nM.
Consider `O=C(NCc1ccccc1)c1nc(NCc2ccccc2)nc2ccsc12` [Example Z51, N-Benzyl-2-(benzylamino)thieno[3,2-d]pyrimidine-4-carboxamide], for which, in experiment [1], the Ratio is given as 0.40 and the half-inhibitory concentration (IC50) fell in the range of 100 to 500 nM. Also, in experiment [2], the half-maximal inhibitory concentration (IC50) was 100 to 500 nM.
In the case of `Cc1cncc(CNc2nc(C(=O)N3CC[C@H](O)C3)c3sccc3n2)c1` [Example Z56, (S)-(3-Hydroxypyrrolidin-1-yl)(2-(((5-methylpyridin-3-yl)methyl)amino)thieno[3,2-d]pyrimidin-4-yl)methanone], in experiment [1], the Ratio was 50.76 and the IC50 lay in the range of 100 to 500 nM. The IC50 in experiment [2] is greater than 500 nM.
Turning to `COc1ccc(CNC(=O)c2nc(NCc3cncc(C)c3)nc3ccsc23)cn1` [Example Z57, N-((6-Methoxypyridin-3-yl)methyl)-2-(((5-methylpyridin-3-yl)methyl)amino)thieno[3,2-d]pyrimidine-4-carboxamide], in experiment [1], the Ratio is on record as 1.41 and the IC50 lay in the range of 100 to 500 nM. For the same molecule, in experiment [2], the half-inhibitory concentration (IC50) lay within 100 to 500 nM.
Turning to `C[C@H](Nc1nc(C(=O)NCc2ccc(C#N)nc2)c2sccc2n1)c1ccccn1` [Example Z64, (S)—N-((6-Cyanopyridin-3-yl)methyl)-2-((1-(pyridin-2-yl)ethyl)amino)thieno[3,2-d]pyrimidine-4-carboxamide], the Ratio in experiment [1] was found to be 1.94. Moreover, the IC50 in experiment [1] and in experiment [2] was 100 to 500 nM in each case.
`COc1ccc(NC(=O)c2nc(N[C@@H](C)c3ccccn3)nc3ccsc23)cn1` [Example Z65, (S)—N-(6-Methoxypyridin-3-yl)-2-((1-(pyridin-2-yl)ethyl)amino)thieno[3,2-d]pyrimidine-4-carboxamide]: in experiment [1], the Ratio is on record as 14.95 and the IC50 lay in the range of 50 to 100 nM. In experiment [2], the half-maximal inhibitory concentration (IC50) is greater than 500 nM.
Consider `COc1ccc(CNC(=O)c2nc(NCc3cncc(F)c3)nc3ccsc23)cn1` [Example Z67, 2-(((5-Fluoropyridin-3-yl)methyl)amino)-N-((6-methoxypyridin-3-yl)methyl)thieno[3,2-d]pyrimidine-4-carboxamide], for which the IC50 lay in the range of 10 to 50 nM in experiment [1] and 100 to 500 nM in experiment [2].
For `O=C(NCC1CCN(Cc2ccccc2)CC1)c1nc(NCc2cncc(F)c2)nc2ccsc12` [Example Z68, N-((1-Benzylpiperidin-4-yl)methyl)-2-(((5-fluoropyridin-3-yl)methyl)amino)thieno[3,2-d]pyrimidine-4-carboxamide], the IC50 in experiment [1] and in experiment [2] was 50 to 100 nM each time.
